Measured values as given in US20200270309A1, “MALEIMIDE GROUP-MODIFIED ANGIOGENESIS INHIBITOR HM-1 AND USE THEREOF” (NANJING ANJI BIOLOGICAL TECHNOLOGY CO., LTD, priority 2017, published 2020).
Like-named read-outs stand apart in the source and are kept apart here. Peptide text beside a SMILES is read from it. * marks the point of attachment. MaleimidoPEG4propanoyl = O=C1C=CC(=O)N1CCOCCOCCOCCOCCC(=O)*; Hexanoyl(6-maleimido) = O=C1C=CC(=O)N1CCCCCC(=O)*; X23 = O=C1C=CC(=O)N1CCOCCOCCOCCOCCOCCOCCCCC(=O)*; Propanoyl(3-maleimido) = O=C1C=CC(=O)N1CCC(=O)*; X29 = O=C1C=CC(=O)N1CCOCCOCCOCCOCCOCCOCCCC(=O)*; X36 = O=C1C=CC(=O)N1c1ccc(CCCCCCCCCCCC(=O)*)cc1; X39 = O=C1C=CC(=O)N1c1ccc(CCCCCCCCCCC(=O)*)cc1; X44 = O=C1C=CC(=O)N1c1ccc(CCCCCCCC(=O)*)cc1; X25 = O=C1C=CC(=O)N1CCOCCOCCOCCOCCCCC(=O)*; X43 = O=C1C=CC(=O)N1c1ccc(CCCCCCC(=O)*)cc1; X16 = O=C1C=CC(=O)N1CCOCCOCCCCCCC(=O)*; X47 = O=C1C=CC(=O)N1c1ccccc1CCCCC(=O)*; X70 = O=C1C=CC(=O)N1CCOCCOCCOCCCC(=O)*; X50 = O=C1C=CC(=O)N1c1ccc(CC(=O)*)cc1; X76 = O=C1C=CC(=O)N1CCOCCCCCCCC(=O)*; X82 = O=C1C=CC(=O)N1CCCCCCCCC(=O)*; X1 = O=C1C=CC(=O)N1CCOCCCC(=O)*

Assay: Half-lives and pharmacokinetic parameters of polypeptides vs HM-1
Design: AUC0-∞: concentration or dose not given beside the values
Details: in vivo
[1] = read-out: T1/2β (half-life) (converted)

SMILES | AUC(0-inf) [ng·h/mL] | MRT inf [h] | clearance [mL/min/kg] | half-life (T1/2β (half-life)) [h] | AUC(0-inf) (read-out: AUC0-∞) [ng·h/mL] | clearance (read-out: CL (converted)) [mL/min/kg] | MRT inf (read-out: MRT0-∞) [h] | half-life [1] [h] | AUC0-∞ [mg/L/h]
C[C@H](NC(=O)CNC(=O)[C@H](CCCNC(=N)N)NC(=O)CCCOCCN1C(=O)C=CC1=O)C(=O)N[C@@H](CC(=O)O)C(=O)N[C@@H](CCCNC(=N)N)C(=O)N[C@@H](C)C(=O)NCC(=O)NCC(=O)NCC(=O)NCC(=O)N[C@@H](CCCNC(=N)N)C(=O)NCC(=O)N[C@@H](CC(=O)O)C(=O)O [X51] (X1-RGADRAGGGGRGD-OH) | 32500 ± 7310 | 58.1 ± 9.42 | 0.513 | 40.28 ± 0.24 |  |  |  |  | 
C[C@H](NC(=O)[C@H](CCCNC(=N)N)NC(=O)[C@H](CC(=O)O)NC(=O)CNC(=O)[C@H](CCCNC(=N)N)NC(=O)CCCCCN1C(=O)C=CC1=O)C(=O)NCC(=O)NCC(=O)NCC(=O)NCC(=O)N[C@@H](CCCNC(=N)N)C(=O)NCC(=O)N[C@@H](CC(=O)O)C(=O)O [P8] ({Hexanoyl(6-maleimido)}-RGDRAGGGGRGD-OH; C-terminus assumed) |  |  |  |  | 31200 ± 8090 | 0.535 | 55.8 ± 13.4 | 38.67 ± 0.27 | 
C[C@H](NC(=O)CNC(=O)[C@H](CCCNC(=N)N)NC(=O)CCOCCOCCOCCOCCN1C(=O)C=CC1=O)C(=O)N[C@@H](CC(=O)O)C(=O)N[C@@H](CCCNC(=N)N)C(=O)N[C@@H](C)C(=O)NCC(=O)NCC(=O)NCC(=O)NCC(=O)N[C@@H](CCCNC(=N)N)C(=O)NCC(=O)N[C@@H](CC(=O)O)C(=O)O [X71] (MaleimidoPEG4propanoyl-RGADRAGGGGRGD-OH) | 28300 ± 8140 | 50.7 ± 13.4 | 0.588 | 35.13 ± 0.34 |  |  |  |  | 
C[C@H](NC(=O)CNC(=O)[C@H](CCCNC(=N)N)NC(=O)CCCCCCCCN1C(=O)C=CC1=O)C(=O)N[C@@H](CC(=O)O)C(=O)N[C@@H](CCCNC(=N)N)C(=O)N[C@@H](C)C(=O)NCC(=O)NCC(=O)NCC(=O)NCC(=O)N[C@@H](CCCNC(=N)N)C(=O)NCC(=O)N[C@@H](CC(=O)O)C(=O)O [X8] (X82-RGADRAGGGGRGD-OH) | 27900 ± 7570 | 50 ± 12.6 | 0.597 | 34.68 ± 0.31 |  |  |  |  | 
CC[C@H](C)[C@H](NC(=O)[C@H](Cc1c[nH]cn1)NC(=O)[C@H](CCC(N)=O)NC(=O)[C@H](CCCNC(=N)N)NC(=O)CCN1C(=O)C=CC1=O)C(=O)N[C@@H](Cc1ccccc1)C(=O)N1CCC[C@H]1C(=O)N[C@@H](CO)C(=O)N[C@@H](Cc1c[nH]c2ccccc12)C(=O)N[C@@H](Cc1c[nH]c2ccccc12)C(=O)N[C@@H](Cc1ccccc1)C(=O)N[C@@H](Cc1c[nH]c2ccccc12)C(=O)N[C@@H](Cc1ccc(O)cc1)C(=O)N[C@@H](Cc1ccc(O)cc1)C(=O)N1CCC[C@H]1C(=O)N[C@@H](CC(=O)O)C(=O)N[C@@H](CCCNC(=N)N)C(=O)N[C@@H](CC(C)C)C(=O)N[C@@H](CCCCN)C(=O)N[C@@H](CCSC)C(=O)N[C@@H](CCCNC(=N)N)C(=O)NCC(=O)N[C@@H](CC(=O)O)C(=O)O [P3] ({Propanoyl(3-maleimido)}-RQHIFPSWWFWYYPDRLKMRGD-OH; C-terminus assumed) |  |  |  |  |  |  |  | 38.89 ± 0.3 | 0.0319 ± 0.0076
C[C@H](NC(=O)CNC(=O)[C@H](CCCNC(=N)N)NC(=O)CCCCCCCCCCCc1ccc(N2C(=O)C=CC2=O)cc1)C(=O)N[C@@H](CC(=O)O)C(=O)N[C@@H](CCCNC(=N)N)C(=O)N[C@@H](C)C(=O)NCC(=O)NCC(=O)NCC(=O)NCC(=O)N[C@@H](CCCNC(=N)N)C(=O)NCC(=O)N[C@@H](CC(=O)O)C(=O)O [X47] (X36-RGADRAGGGGRGD-OH) | 33200 ± 7130 | 59.4 ± 12 | 0.502 | 41.19 ± 0.27 |  |  |  |  | 
CC(C)[C@H](NC(=O)[C@H](C)NC(=O)CNC(=O)[C@H](CCCNC(=N)N)NC(=O)CCN1C(=O)C=CC1=O)C(=O)N[C@@H](CC(=O)O)C(=O)N[C@@H](CCCNC(=N)N)C(=O)N[C@@H](C)C(=O)NCC(=O)NCC(=O)NCC(=O)NCC(=O)N[C@@H](CCCNC(=N)N)C(=O)NCC(=O)N[C@@H](CC(=O)O)C(=O)O [P9] ({Propanoyl(3-maleimido)}-RGAVDRAGGGGRGD-OH; C-terminus assumed) |  |  |  |  | 27900 ± 6880 | 0.597 | 50 ± 10.7 | 34.64 ± 0.3 | 
C[C@H](NC(=O)CNC(=O)[C@H](CCCNC(=N)N)NC(=O)CCN1C(=O)C=CC1=O)C(=O)N[C@@H](CC(=O)O)C(=O)N[C@@H](CCCNC(=N)N)C(=O)N[C@@H](C)C(=O)NCC(=O)N[C@@H](CO)C(=O)N[C@@H](CO)C(=O)N[C@@H](CO)C(=O)N[C@@H](CO)C(=O)N[C@@H](CCCNC(=N)N)C(=O)NCC(=O)N[C@@H](CC(=O)O)C(=O)O [P13] ({Propanoyl(3-maleimido)}-RGADRAGSSSSRGD-OH; C-terminus assumed) |  |  |  |  | 31800 ± 8090 | 0.525 | 56.9 ± 14.2 | 3944 ± 0.27 | 
C[C@H](NC(=O)CNC(=O)[C@H](CCCNC(=N)N)NC(=O)CCCCCCCOCCN1C(=O)C=CC1=O)C(=O)N[C@@H](CC(=O)O)C(=O)N[C@@H](CCCNC(=N)N)C(=O)N[C@@H](C)C(=O)NCC(=O)NCC(=O)NCC(=O)NCC(=O)N[C@@H](CCCNC(=N)N)C(=O)NCC(=O)N[C@@H](CC(=O)O)C(=O)O [X55] (X76-RGADRAGGGGRGD-OH) | 24300 ± 8150 | 43.5 ± 12.4 | 0.687 | 30.1 ± 0.36 |  |  |  |  | 
C[C@H](NC(=O)CNC(=O)[C@H](CCCNC(=N)N)NC(=O)CCCOCCOCCOCCN1C(=O)C=CC1=O)C(=O)N[C@@H](CC(=O)O)C(=O)N[C@@H](CCCNC(=N)N)C(=O)N[C@@H](C)C(=O)NCC(=O)NCC(=O)NCC(=O)NCC(=O)N[C@@H](CCCNC(=N)N)C(=O)NCC(=O)N[C@@H](CC(=O)O)C(=O)O [X65] (X70-RGADRAGGGGRGD-OH) | 31800 ± 7280 | 57.1 ± 12.2 | 0.523 | 39.53 ± 0.31 |  |  |  |  | 
C[C@H](NC(=O)CNC(=O)[C@H](CCCNC(=N)N)NC(=O)CCCCCCCc1ccc(N2C(=O)C=CC2=O)cc1)C(=O)N[C@@H](CC(=O)O)C(=O)N[C@@H](CCCNC(=N)N)C(=O)N[C@@H](C)C(=O)NCC(=O)NCC(=O)NCC(=O)NCC(=O)N[C@@H](CCCNC(=N)N)C(=O)NCC(=O)N[C@@H](CC(=O)O)C(=O)O [X43] (X44-RGADRAGGGGRGD-OH) | 26700 ± 7420 | 47.8 ± 9.93 | 0.623 | 33.14 ± 0.31 |  |  |  |  | 
C[C@H](NC(=O)CNC(=O)[C@H](CCCNC(=N)N)NC(=O)CCCCCCOCCOCCN1C(=O)C=CC1=O)C(=O)N[C@@H](CC(=O)O)C(=O)N[C@@H](CCCNC(=N)N)C(=O)N[C@@H](C)C(=O)NCC(=O)NCC(=O)NCC(=O)NCC(=O)N[C@@H](CCCNC(=N)N)C(=O)NCC(=O)N[C@@H](CC(=O)O)C(=O)O [X61] (X16-RGADRAGGGGRGD-OH) | 25600 ± 7550 | 45.7 ± 13.6 | 0.652 | 31.69 ± 0.28 |  |  |  |  | 
C[C@H](NC(=O)CNC(=O)[C@H](CCCNC(=N)N)NC(=O)CCCCCCCCCCc1ccc(N2C(=O)C=CC2=O)cc1)C(=O)N[C@@H](CC(=O)O)C(=O)N[C@@H](CCCNC(=N)N)C(=O)N[C@@H](C)C(=O)NCC(=O)NCC(=O)NCC(=O)NCC(=O)N[C@@H](CCCNC(=N)N)C(=O)NCC(=O)N[C@@H](CC(=O)O)C(=O)O [X46] (X39-RGADRAGGGGRGD-OH) | 31600 ± 7470 | 56.6 ± 11 | 0.527 | 39.23 ± 0.29 |  |  |  |  | 
C[C@H](NC(=O)CNC(=O)[C@H](CCCNC(=N)N)NC(=O)CCCCCCc1ccc(N2C(=O)C=CC2=O)cc1)C(=O)N[C@@H](CC(=O)O)C(=O)N[C@@H](CCCNC(=N)N)C(=O)N[C@@H](C)C(=O)NCC(=O)NCC(=O)NCC(=O)NCC(=O)N[C@@H](CCCNC(=N)N)C(=O)NCC(=O)N[C@@H](CC(=O)O)C(=O)O [X42] (X43-RGADRAGGGGRGD-OH) | 27100 ± 8010 | 48.5 ± 10.6 | 0.615 | 33.58 ± 0.24 |  |  |  |  | 
C[C@H](NC(=O)CNC(=O)[C@H](CCCNC(=N)N)NC(=O)CCCCOCCOCCOCCOCCN1C(=O)C=CC1=O)C(=O)N[C@@H](CC(=O)O)C(=O)N[C@@H](CCCNC(=N)N)C(=O)N[C@@H](C)C(=O)NCC(=O)NCC(=O)NCC(=O)NCC(=O)N[C@@H](CCCNC(=N)N)C(=O)NCC(=O)N[C@@H](CC(=O)O)C(=O)O [X73] (X25-RGADRAGGGGRGD-OH) | 26700 ± 8240 | 47.9 ± 13.6 | 0.623 | 33.16 ± 0.26 |  |  |  |  | 
C[C@H](NC(=O)CNC(=O)[C@H](CCCNC(=N)N)NC(=O)CCCOCCOCCOCCOCCOCCOCCN1C(=O)C=CC1=O)C(=O)N[C@@H](CC(=O)O)C(=O)N[C@@H](CCCNC(=N)N)C(=O)N[C@@H](C)C(=O)NCC(=O)NCC(=O)NCC(=O)NCC(=O)N[C@@H](CCCNC(=N)N)C(=O)NCC(=O)N[C@@H](CC(=O)O)C(=O)O [X86] (X29-RGADRAGGGGRGD-OH) | 25800 ± 8050 | 46.2 ± 10.2 | 0.645 | 32.03 ± 0.31 |  |  |  |  | 
C[C@H](NC(=O)CNC(=O)[C@H](CCCNC(=N)N)NC(=O)CCCCOCCOCCOCCOCCOCCOCCN1C(=O)C=CC1=O)C(=O)N[C@@H](CC(=O)O)C(=O)N[C@@H](CCCNC(=N)N)C(=O)N[C@@H](C)C(=O)NCC(=O)NCC(=O)NCC(=O)NCC(=O)N[C@@H](CCCNC(=N)N)C(=O)NCC(=O)N[C@@H](CC(=O)O)C(=O)O [X87] (X23-RGADRAGGGGRGD-OH) | 33400 ± 8450 | 59.8 ± 10.6 | 0.498 | 41.42 ± 0.31 |  |  |  |  | 
C[C@H](NC(=O)CNC(=O)[C@H](CCCNC(=N)N)NC(=O)Cc1ccc(N2C(=O)C=CC2=O)cc1)C(=O)N[C@@H](CC(=O)O)C(=O)N[C@@H](CCCNC(=N)N)C(=O)N[C@@H](C)C(=O)NCC(=O)NCC(=O)NCC(=O)NCC(=O)N[C@@H](CCCNC(=N)N)C(=O)NCC(=O)N[C@@H](CC(=O)O)C(=O)O [X37] (X50-RGADRAGGGGRGD-OH) | 27200 ± 7210 | 48.7 ± 13.6 | 0.612 | 33.76 ± 0.28 |  |  |  |  | 
C[C@H](NC(=O)CNC(=O)[C@H](CCCNC(=N)N)NC(=O)CCCCc1ccccc1N1C(=O)C=CC1=O)C(=O)N[C@@H](CC(=O)O)C(=O)N[C@@H](CCCNC(=N)N)C(=O)N[C@@H](C)C(=O)NCC(=O)NCC(=O)NCC(=O)NCC(=O)N[C@@H](CCCNC(=N)N)C(=O)NCC(=O)N[C@@H](CC(=O)O)C(=O)O [X16] (X47-RGADRAGGGGRGD-OH) | 31400 ± 8390 | 56.3 ± 13.6 | 0.53 | 39 ± 0.24 |  |  |  |  | 
